Assay results reported in US20050250677A1, “Glycopeptide antibiotic derivatives” (priority 2002, published 2005).
Entries after “also recorded” stand apart in the source; their conditions may differ. Like-named read-outs stand apart in the source and are kept apart here.

Assays:
HIV-1 (IIIB) = test: Inhibition of HIV-1 (IIIB)-induced cytopathicity (giant cell formation) in CEM cells; type: cell-based
Method: (§1) A variety of glycopeptide antibiotic derivatives of vancomycin, eremomycin and teicoplanin including their aglycon derivatives were evaluated for their inhibitory activity against HIV-1 (IIIB) and HIV-2(ROD) in CEM cell cultures.

Vero cells = details: read-out: CC50 Vero
HIV-2(ROD) = test: Inhibition of HIV-2 (ROD)-induced cytopathicity (giant cell formation) in CEM cells; type: cell-based
Method: as §1

[1] = system: human lymphocyte Molt4/clone 8; test: Cytostatic activity assay, Molt4/clone 8 cells; type: cell-based; details: read-out: IC50 Molt4/C8 (compound concentration required to inhibit tumor cell proliferation by 50%)
murine leukemia L1210 = test: Cytostatic activity assay, L1210 cells; type: cell-based; details: read-out: IC50 L1210 (compound concentration required to inhibit tumor cell proliferation by 50%)
human lymphocyte CEM = test: Cytostatic activity assay, CEM cells; type: cell-based; details: read-out: IC50 CEM (compound concentration required to inhibit tumor cell proliferation by 50%)
FCV = test: Feline corona virus assay in Feline Crandel kidney cells (MTS); type: cell-based
Method: Feline Crandel kidney cells were seeded in 96-well microtiter plates at 24,000 cells/well. Then, 24 hrs later, an appropriate inoculum of FCV is added together with 5-fold dilutions of the test compounds. After 4 days, a MTS/PMS solution was added to each well. Following a 90 min incubation period at 37° C., the optical density of the wells was read at 498 nm in a microplate reader.

[2] = system: SARS virus (strain Frankfurt-1); test: microbe, parasite or virus in culture; type: cell-based, human corona (SARS) virus
[3] = HIV-1 (IIIB), CEM cell cultures, read-out: EC50 against HIV-1
[4] = FCV in FCK cells, read-out: EC50 FCV
[5] = SARS virus in Vero cells, read-out: EC50 SARS virus
[6] = read-out: EC50 HIV-1 (concentration required to inhibit HIV-induced giant cell formation by 50%), HIV-1, CEM cell cultures
[7] = read-out: EC50 HIV-2 (concentration required to inhibit HIV-induced giant cell formation by 50%), HIV-2, CEM cell cultures

Row | Compound | EC50 (HIV-1 (IIIB); [3]) [µM] | CC50 (Vero cells) [µM] | EC50 (HIV-2(ROD); HIV-2(ROD), CEM cell cultures, read-out: EC50 against HIV-2) [µM] | IC50 [1] [µM] | IC50 (murine leukemia L1210) [µM] | IC50 (human lymphocyte CEM) [µM] | CC50 (FCK cells) [µM] | EC50 (FCV; [4]) [µM] | EC50 [2, 5] [µM] | EC50 (HIV-1 (IIIB); [6]) [µM] | EC50 (HIV-2(ROD); [7]) [µM] | CC50 (FCK cells; read-out: CC50 FCK, FCK cells) [µM] | EC50 (FCV; read-out: EC50 against FCV) [µM] | EC50 ([2]; read-out: EC50 against SARS virus) [µM] | activity against FCV (FCV)
1 | NC1Cc2ccc(c(Cl)c2)Oc2cc3cc(c2O)Oc2ccc(cc2Cl)C(O)C2NC(=O)C(NC(=O)C3NC(=O)C(c3cc(O)cc(Oc4cc(C5NC(=S)N(c6ccccc6)C5=O)ccc4O)c3)NC1=O)c1ccc(O)c(c1)-c1c(cc(O)c(CNC3C4CC5CC(C4)CC3C5)c1O)C(C(=O)O)NC2=O (stereo not shown) [Compound 55] | 13 | > 100 | 17 | ≥ 250 | 73 ± 24 | 242 ± 11 | > 100 | 22 | 31 |  |  |  |  |  | 
2 | NC1C(=O)NC2Cc3ccc(c(Cl)c3)Oc3cc4cc(c3O)Oc3ccc(cc3Cl)C(O)C3NC(=O)C(NC(=O)C4NC(=O)C(NC2=O)c2cc(O)cc(c2)Oc2cc1ccc2O)c1ccc(O)c(c1)-c1c(O)cc(O)cc1C(C(=O)NCC12CC4CC(CC(C4)C1)C2)NC3=O (stereo not shown) [Compound 166] |  | > 100 |  | 112 ± 2 | 91 ± 2 | 125 ± 30 |  | 8.5 | 31 | 1.8 ± 0.58 | 7 | 49 |  |  | 
3 | CCCCc1ccc(CN2CCN(Cc3c(O)cc4c(c3O)-c3cc(ccc3O)C3NC(=O)C5NC(=O)C(CC(N)=O)NC(=O)C(NC(=O)C(CC(C)C)NC)C(O)c6ccc(c(Cl)c6)Oc6cc5cc(c6OC5OC(CO)C(O)C(O)C5OC5CC(C)(N)C(O)C(C)O5)Oc5ccc(cc5Cl)C(O)C(NC3=O)C(=O)NC4C(=O)O)CC2)cc1 (stereo not shown) [Compound 1] | 5.5 | > 100 |  | > 100 | 53 ± 9 | > 100 |  | 30 | 43 | 12 ± 3.5 | 22 ± 3.5 | > 50 | 30 to 43 | 30 to 43 | 
4 | COC(=O)C1NC(=O)C2NC(=O)C(NC(=O)C(NC(=O)OC(C)(C)C)c3cc(Oc4ccc(CC(NC(=O)OCc5ccccc5)C(=O)O)cc4Cl)c(O)c(c3)Oc3ccc(cc3Cl)C2O)c2ccc(O)c(c2)-c2c1cc(O)c(CNC1C3CC4CC(C3)CC1C4)c2O (stereo not shown) [Compound 53] |  | > 100 |  | 122 ± 13 | 95 ± 10 | 240 ± 13 | ≥ 100 | 36 | 29 | 17 ± 3.5 | 11 ± 5.7 |  |  |  | 
5 | NC1C(=O)NC2Cc3ccc(c(Cl)c3)Oc3cc4cc(c3O)Oc3ccc(cc3Cl)C(O)C3NC(=O)C(NC(=O)C4NC(=O)C(NC2=O)c2cc(O)cc(c2)Oc2cc1ccc2O)c1ccc(O)c(c1)-c1c(O)cc(O)cc1C(C(=O)NCc1ccc(F)cc1)NC3=O (stereo not shown) [Compound 165] |  | > 100 |  | ≥ 250 | 240 ± 15 | > 250 |  | 11 | 26 | 9 ± 5.3 | 30 ± 7.1 | 80 |  |  | 
6 | CCCCc1ccc(CN2CCN(Cc3c(O)cc4c(c3O)-c3cc(ccc3O)C3NC(=O)C5NC(=O)C(CC(N)=O)NC(=O)C(NC(=O)C(CC(C)C)NC)C(O)c6ccc(c(Cl)c6)Oc6cc5cc(c6OC5OC(CO)C(O)C(O)C5OC5CC(C)(N)C(O)C(C)O5)Oc5ccc(cc5)C(OC5CC(C)(N)C(O)C(C)O5)C(NC3=O)C(=O)NC4C(=O)NC)CC2)cc1 (stereo not shown) [Compound 5] | 0.43 | 54 |  | 17 ± 3 | 24 ± 0.4 | 40 ± 4 |  | 5.4 | 13 |  | > 10 | 28 |  |  | active; also recorded: pronounced activity
7 | CC(NC(=O)C1NC(=O)C2NC(=O)C(NC(=O)C3NC(=O)C4NC(=O)C(Cc5ccc(c(Cl)c5)Oc5cc3cc(c5O)Oc3ccc(cc3Cl)C2O)NC(=O)C(N)c2ccc(O)c(c2)Oc2cc(O)cc4c2)c2ccc(O)c(c2)-c2c(O)cc(O)cc21)C12CC3CC(CC(C3)C1)C2 (stereo not shown) [Compound 160] |  | > 100 |  | 97 ± 10 | 92 ± 5 | 106 |  | 4.5 | 27 | 3.3 ± 1.4 | 7.5 ± 0.7 | 56 |  |  | 
